Measurements published in PMC4193543 (ChemMedChem, 2012).

Target: BK β1 subunit (Rattus norvegicus, UniProt P97678)
Experiment: inside-out patch clamp, single-channel NPo in excised oocyte patches
Assay type: cell-based

Chain of BK β1 subunit (P97678 whole entry): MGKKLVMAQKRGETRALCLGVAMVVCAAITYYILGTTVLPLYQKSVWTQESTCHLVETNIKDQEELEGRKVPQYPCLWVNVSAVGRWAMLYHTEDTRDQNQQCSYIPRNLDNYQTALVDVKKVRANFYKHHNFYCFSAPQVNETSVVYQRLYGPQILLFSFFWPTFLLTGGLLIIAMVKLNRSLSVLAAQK
Chain of BK β1 subunit (Q62976 whole entry partner): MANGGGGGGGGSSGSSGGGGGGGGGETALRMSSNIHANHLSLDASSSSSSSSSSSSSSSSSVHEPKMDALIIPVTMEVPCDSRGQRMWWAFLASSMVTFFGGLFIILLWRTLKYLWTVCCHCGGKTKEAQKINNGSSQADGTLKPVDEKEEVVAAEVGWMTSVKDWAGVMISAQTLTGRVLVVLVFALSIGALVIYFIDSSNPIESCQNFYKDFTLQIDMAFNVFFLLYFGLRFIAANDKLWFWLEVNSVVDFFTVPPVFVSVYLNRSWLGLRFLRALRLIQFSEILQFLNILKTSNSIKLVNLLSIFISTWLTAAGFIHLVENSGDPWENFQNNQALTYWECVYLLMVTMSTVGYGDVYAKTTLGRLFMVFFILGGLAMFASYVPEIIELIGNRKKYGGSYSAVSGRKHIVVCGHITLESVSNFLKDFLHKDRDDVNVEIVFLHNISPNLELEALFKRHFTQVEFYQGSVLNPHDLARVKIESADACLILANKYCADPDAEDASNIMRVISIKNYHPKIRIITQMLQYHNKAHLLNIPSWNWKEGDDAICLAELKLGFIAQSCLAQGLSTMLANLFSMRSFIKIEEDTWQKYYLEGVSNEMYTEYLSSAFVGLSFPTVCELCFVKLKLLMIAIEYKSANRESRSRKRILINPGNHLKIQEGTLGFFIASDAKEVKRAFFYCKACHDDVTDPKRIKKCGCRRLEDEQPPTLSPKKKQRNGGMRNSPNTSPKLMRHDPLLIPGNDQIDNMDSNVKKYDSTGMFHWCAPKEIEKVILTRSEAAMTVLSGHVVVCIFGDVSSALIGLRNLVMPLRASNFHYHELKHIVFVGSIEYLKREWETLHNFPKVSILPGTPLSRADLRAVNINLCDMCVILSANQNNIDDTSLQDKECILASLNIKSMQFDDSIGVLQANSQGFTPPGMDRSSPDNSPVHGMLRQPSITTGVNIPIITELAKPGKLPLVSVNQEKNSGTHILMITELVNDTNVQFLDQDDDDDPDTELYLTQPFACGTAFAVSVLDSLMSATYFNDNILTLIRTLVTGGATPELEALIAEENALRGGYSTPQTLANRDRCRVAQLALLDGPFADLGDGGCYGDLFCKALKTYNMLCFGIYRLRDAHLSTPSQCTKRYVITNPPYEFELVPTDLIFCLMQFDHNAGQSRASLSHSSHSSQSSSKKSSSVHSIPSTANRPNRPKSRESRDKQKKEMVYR

In the case of C[C@H](CCC(=O)O)[C@H]1CC[C@H]2[C@@H]3CC[C@@H]4C[C@H](O)CC[C@]4(C)[C@H]3CC[C@]12C [LCA, 5β-cholanic acid-3α-ol], the EC50 is reported as 44 µM.
C[C@H](CCC#N)[C@H]1CC[C@H]2[C@@H]3CC[C@@H]4C[C@H](O)CC[C@]4(C)[C@H]3CC[C@]12C [compound 11, 3α-hydroxy-23-cyano analog, de-acetylated derivative (11)] was tested, and the EC50 was 46.4 µM.
With C[C@H](CCCC(=O)O)[C@H]1CC[C@H]2[C@@H]3CC[C@@H]4C[C@H](O)CC[C@]4(C)[C@H]3CC[C@]12C [compound 15, higher homologe acid (15, carboxyl group at C25)] the EC50 was 42.8 µM.
